Experimental data from a melting point compilation (Tetko et al.; mined from patent text by program, amines drawn as free bases though some values may be those of a salt).

First: CNC(=O)Oc1ccc(NC(=O)C(F)(F)Cl)c(C)c1
Second: Cc1cc(C(O)(C(F)(F)Cl)C(F)(F)Cl)cc(C)c1O
The melting point of the first is higher: 156 to 158 °C for the first, 90.5 to 92 °C for the second.

First: CS(=O)(=O)c1ccc(-n2nc(C(F)(F)F)cc2-c2ccc(-c3ccoc3)cc2)cc1F
Second: Fc1ccc(CSc2nnc(-c3ccc4c(c3)CCO4)o2)cc1C(F)(F)F
The melting point of the first is lower: 74 to 76 °C for the first, 94 to 95 °C for the second.

First: O=C(O)c1ccc(O)c(Nc2cc(Cl)cc(Cl)c2)c1
Second: COc1ccc(C(=O)Nc2ccc(F)c(F)c2)cc1NC(=S)Nc1cccc(C(=O)O)c1
The melting point of the first is lower: 166 to 167 °C for the first, 221 to 222 °C for the second.

First: CCN1C(c2ccccc2C(=O)c2ccc(Cl)cc2)=NCC1(C)C
Second: CCOC(=O)c1nc2ccccc2n1[C@@H]1CC(C)(C)Oc2ccc(C#N)cc21
The melting point of the first is lower: 85 to 87 °C for the first, 169 to 171 °C for the second.

Compared with `CCC(=O)Oc1ccc2c(c1)CCC1C2CCC2(C)C1CC(O)C2NC` (stereo not given), `Cc1cc(-c2cccc(C(=O)CC(=O)OC(C)(C)C)c2)on1` is lower in melting point: 182 to 185 °C for the first, 50 to 56 °C for the second.

First: Cc1cccc(C)c1-c1cccc(C(N)=O)c1
Second: COc1ccc(-c2cc(C)nc3ccccc23)cc1
The melting point of the first is higher: 123 to 125 °C for the first, 101 °C for the second.

Compared with `C=CCC1C(OCc2ccccc2)CC(OCc2ccccc2)C1OS(=O)(=O)c1ccc(C)cc1` (single isomer, unassigned; (-)), `O=S(=O)(c1ccccc1)n1c(-c2cccc(C(O)c3cc4ccccc4n3S(=O)(=O)c3ccccc3)c2)cc2ccccc21` (stereo not given) is higher in melting point: 57 to 58 °C for the first, 81 to 83 °C for the second.

First: N#CCOc1ccc(Cl)c(Cl)c1
Second: C#Cc1c(Cl)cccc1Cl
The melting point of the first is lower: 61 to 62 °C for the first, 97 to 98 °C for the second.

Compared with `Fc1ccc2[nH]cc(C3=CCN(CC4COc5ccc6ncccc6c5O4)CC3)c2c1` (stereo not given), `Cc1noc(NC(=O)N2CCN(c3ccnc(-c4cccc(F)c4F)n3)CC2)c1C` is higher in melting point: 184 °C for the first, 209 to 210 °C for the second.

First: Sc1nnc(-c2ccc3c(c2)CCO3)o1
Second: O=C1CCCc2ccc(O)cc21
The melting point of the first is higher: 219 to 221 °C for the first, 170 to 173 °C for the second.

First: COc1ccc(N(C)c2nc(NC(=O)C(C)(C)C)nc3[nH]c4ccccc4c23)cc1
Second: CC(C)(C)c1nc(-c2ccc3ccccc3c2)c(-c2ccncc2)[nH]1
The melting point of the first is higher: 288 to 289 °C for the first, 218 to 220 °C for the second.

Compared with `Cn1nc(-c2ccccc2C(F)(F)F)nc1-c1ccccc1C(F)(F)F`, `C[Si](C)(C)C#Cc1c(C(F)(F)F)nn(-c2c(Cl)cc(C(F)(F)F)cc2Cl)c1N` is higher in melting point: 108 to 111 °C for the first, 120 to 123 °C for the second.

First: Cn1cc(/C=C/C#N)c2ccccc21
Second: O=c1cc(-c2ccc(Br)cc2)oc2ccccc12
The melting point of the first is lower: 91 to 94 °C for the first, 177 to 179 °C for the second.

Compared with `CCOc1ccc(-c2nc(-c3ccc(OCC(=O)OC)c(C(=O)OC)c3)cs2)cc1OCC`, `CCCCNc1nc2cnnc(OCC)c2cc1C(=O)OCC` is higher in melting point: 96 to 97 °C for the first, 98 to 99 °C for the second.

First: COc1ccc(C2=CC=CCC2(OC(C)C)C(=O)O)c(OC)c1 (stereo not given)
Second: COC(C)c1ccc(C=C(C)c2ccc3c(c2)C(C)(C)CCC3(C)C)cc1 (stereo not given)
The melting point of the first is higher: 121 to 122 °C for the first, 88 to 89 °C for the second.

First: O=c1[nH]c(N2CCN(CCCCN3CCCCC3)CC2)cc2c(Br)cccc12
Second: O=c1[nH]c2c(Cl)cccc2c(=O)o1
The melting point of the first is lower: 165 to 166 °C for the first, 225 to 230 °C for the second.

First: CCOC(=O)C(=NO)c1csc(C)n1
Second: CCOC(=O)c1nccn1Cc1ccc(Cl)cc1[N+](=O)[O-]
The melting point of the first is lower: 90 to 92 °C for the first, 105 to 107 °C for the second.

First: COc1ccc(-c2cn3ccccc3n2)cc1
Second: Cc1cn(-c2ccc3nc(NC(=O)c4ccc(C(C)(C)C)cc4)cn3n2)c(C)n1
The melting point of the first is lower: 131 to 134 °C for the first, 254 to 255 °C for the second.

First: COc1c(Cl)nc(Cl)nc1-c1ccco1
Second: Cc1cc(C)cc(Oc2nc(Cl)nc(Cl)c2C(C)C)c1
The melting point of the first is lower: 105 to 107 °C for the first, 107 to 108 °C for the second.

`NCc1ccc([N+](=O)[O-])cc1O` and `Oc1ccc(O)c2c1CC=CC2` cannot be ordered by melting point: 210 to 215 °C for the first, 208 to 211 °C for the second.

Compared with `O=C(NCC(O)(Cn1cncn1)c1ccc(Cl)cc1Cl)c1cccnc1` (stereo not given), `O=C1CCCC(Cl)=C1C(=O)c1ccc(Cl)c(OCCn2cnnn2)c1Cl` is lower in melting point: 175 °C for the first, 122 to 124 °C for the second.

First: CCC1C(=O)Nc2ccc(-c3ccc(C#N)n3C)cc21 (stereo not given)
Second: CC(C)(C)c1cc(-c2n[nH]c(=O)s2)cc(C(C)(C)C)c1O
The melting point of the first is lower: 145 to 147 °C for the first, 229 °C for the second.

First: CCCCCCC(O)C(=O)NCCS (stereo not given)
Second: CN(C)C(=O)CCC(NC(=O)C=Cc1ccco1)C(=O)N(C)C (stereo not given)
The melting point of the first is lower: 83 to 84 °C for the first, 178 to 180 °C for the second.

First: NS(=O)(=O)c1ccc(/C(=C(\CCO)C(=O)O)c2ccc(F)cc2)cc1
Second: COCN1C(C)=C(C(=O)OC)C(c2cccc(Cl)c2Cl)C(C(=O)OCOC(=O)C(C)(C)C)=C1C (single isomer, unassigned; (+))
The melting point of the first is higher: 160 to 162 °C for the first, 149 to 150 °C for the second.

Compared with `CC(O)=C1C(=O)CC(c2cc(Cl)sc2Cl)CC1=O` (stereo not given), `CCN1C(Cl)=NC(C)=NS1(=O)=O` is lower in melting point: 107 to 108 °C for the first, 57 to 59 °C for the second.
